Measurements taken from ChEMBL document CHEMBL3627657, “Design, synthesis, biological evaluation and docking study of 4-isochromanone hybrids bearing N-benzyl pyridinium moiety as dual binding site acetylcholinesterase inhibitors” (Bioorg Med Chem Lett, 2015).
Activity calls are given as the source filed them. The rule behind the calls is not given here.

Experiments:
[1] = Selectivity index, ratio of IC50 for equine serum BuChE to IC50 for electric eel AChE
Acetylcholinesterase = Acetylcholinesterase (Electrophorus electricus, UniProt O42275); assay: Inhibition of electric eel AChE using […] as substrate by Ellman's method
Cholinesterase = Cholinesterase (Equus caballus, UniProt P81908)
Description: Inhibition of equine serum BuChE using thiocholine iodide as substrate by Ellman's method

[2] = Lipophilicity, log P of the compound by UV-metric/potentiometric method; type: physicochemical; conditions: octanol/water
[3] = Dissociation constant, pKa of the compound by UV-metric/potentiometric method; type: physicochemical
[4] = target: Acetylcholinesterase (Electrophorus electricus) (UniProt O42275); assay: Mixed type inhibition of electric eel AChE using […] as substrate by Lineweaver-Burk plot analysis
[5] = Lipophilicity, log D of the compound at pH 7.4 by UV-metric/potentiometric method; type: physicochemical; conditions: buffer

Sequence of Acetylcholinesterase (O42275 whole entry): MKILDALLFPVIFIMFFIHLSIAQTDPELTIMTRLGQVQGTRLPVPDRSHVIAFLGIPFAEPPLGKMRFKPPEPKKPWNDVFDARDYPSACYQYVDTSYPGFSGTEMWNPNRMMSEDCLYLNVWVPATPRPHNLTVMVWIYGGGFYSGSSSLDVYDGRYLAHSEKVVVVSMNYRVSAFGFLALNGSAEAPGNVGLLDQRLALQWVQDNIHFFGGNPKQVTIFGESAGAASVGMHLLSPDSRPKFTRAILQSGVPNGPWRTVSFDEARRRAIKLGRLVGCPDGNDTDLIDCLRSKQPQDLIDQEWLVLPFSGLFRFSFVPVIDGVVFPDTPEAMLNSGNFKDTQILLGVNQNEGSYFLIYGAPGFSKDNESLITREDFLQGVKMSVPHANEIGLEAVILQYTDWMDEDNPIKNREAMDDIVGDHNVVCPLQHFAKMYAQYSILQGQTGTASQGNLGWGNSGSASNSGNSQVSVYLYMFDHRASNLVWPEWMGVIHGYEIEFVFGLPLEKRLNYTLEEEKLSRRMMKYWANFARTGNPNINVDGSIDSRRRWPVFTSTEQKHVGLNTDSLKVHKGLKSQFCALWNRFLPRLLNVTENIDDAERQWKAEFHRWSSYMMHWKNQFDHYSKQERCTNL
Sequence of Cholinesterase (P81908 whole entry): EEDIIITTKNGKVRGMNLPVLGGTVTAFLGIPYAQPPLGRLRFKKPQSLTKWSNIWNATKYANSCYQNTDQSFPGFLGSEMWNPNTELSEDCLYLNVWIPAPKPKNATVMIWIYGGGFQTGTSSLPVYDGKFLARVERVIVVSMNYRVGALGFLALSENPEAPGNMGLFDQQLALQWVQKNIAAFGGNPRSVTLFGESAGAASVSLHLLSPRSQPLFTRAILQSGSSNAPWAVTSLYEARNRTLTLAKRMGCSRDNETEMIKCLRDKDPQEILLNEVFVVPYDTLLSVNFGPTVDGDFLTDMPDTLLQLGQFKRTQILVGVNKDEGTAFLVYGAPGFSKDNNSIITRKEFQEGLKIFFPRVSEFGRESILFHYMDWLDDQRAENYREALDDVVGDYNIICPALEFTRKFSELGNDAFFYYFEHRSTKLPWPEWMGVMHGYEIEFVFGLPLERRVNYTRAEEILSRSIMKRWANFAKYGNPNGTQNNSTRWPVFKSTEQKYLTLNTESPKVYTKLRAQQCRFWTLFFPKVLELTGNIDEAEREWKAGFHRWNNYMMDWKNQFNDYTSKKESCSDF
Sequence of Acetylcholinesterase (Electrophorus electricus) (O42275 24-633 limits assumed): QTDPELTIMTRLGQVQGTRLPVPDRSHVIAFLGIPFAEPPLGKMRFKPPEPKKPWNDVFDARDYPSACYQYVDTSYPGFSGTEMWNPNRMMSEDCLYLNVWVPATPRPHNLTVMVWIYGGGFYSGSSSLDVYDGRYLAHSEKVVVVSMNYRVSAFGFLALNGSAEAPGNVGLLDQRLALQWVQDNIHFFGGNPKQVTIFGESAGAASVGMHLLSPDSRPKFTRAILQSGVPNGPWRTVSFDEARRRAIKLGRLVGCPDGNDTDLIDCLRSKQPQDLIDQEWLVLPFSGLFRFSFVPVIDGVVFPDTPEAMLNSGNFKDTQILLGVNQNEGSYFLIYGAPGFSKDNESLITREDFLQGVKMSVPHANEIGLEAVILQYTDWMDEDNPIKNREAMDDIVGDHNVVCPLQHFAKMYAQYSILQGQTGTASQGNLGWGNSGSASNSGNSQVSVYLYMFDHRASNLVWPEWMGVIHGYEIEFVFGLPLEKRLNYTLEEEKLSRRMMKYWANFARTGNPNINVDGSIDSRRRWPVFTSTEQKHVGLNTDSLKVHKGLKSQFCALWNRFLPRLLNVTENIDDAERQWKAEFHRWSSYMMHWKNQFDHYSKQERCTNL

Structure (SMILES)	Ratio IC50 [1]	IC50 (Acetylcholinesterase) [nM]	IC50 (Cholinesterase) [nM]	logP [2]	pKa [3]	inhibition [4]	logD [5]
COc1ccc2c(c1OC)CO/C(=C\c1cc[n+](Cc3cccc([N+](=O)[O-])c3)cc1)C2=O	64	456	29200	–	–	–	–
COc1ccc2c(c1OC)CO/C(=C\c1cc[n+](Cc3ccc(F)cc3)cc1)C2=O	232	8.93	2070	2.84	8.79	Active	1.45
COc1ccc2c(c1OC)CO/C(=C\c1cc[n+](Cc3ccccc3F)cc1)C2=O	209	21.1	4410	–	–	–	–
COc1ccccc1C[n+]1ccc(/C=C2\OCc3c(ccc(OC)c3OC)C2=O)cc1	13	640	8790	–	–	–	–
COc1ccc2c(c1OC)CO/C(=C\c1cc[n+](Cc3cccc(F)c3)cc1)C2=O	359	26.3	9440	–	–	–	–
COc1ccc2c(c1OC)CO/C(=C\c1cc[n+](Cc3ccc([N+](=O)[O-])cc3)cc1)C2=O	–	3550	> 100000	–	–	–	–
COc1ccc2c(c1OC)CO/C(=C\c1cc[n+](Cc3cccc(Cl)c3)cc1)C2=O	142	69.7	9920	–	–	–	–
COc1ccc2c(c1OC)CO/C(=C\c1cc[n+](Cc3ccccc3Cl)cc1)C2=O	229	15.9	3640	3.2	8.62	–	1.96
COc1ccc2c(c1OC)CO/C(=C\c1cc[n+](Cc3ccccc3[N+](=O)[O-])cc1)C2=O	41.6	503	20900	–	–	–	–
COc1ccc(C[n+]2ccc(/C=C3\OCc4c(ccc(OC)c4OC)C3=O)cc2)cc1	3.6	1190	4330	–	–	–	–
COc1ccc2c(c1OC)CO/C(=C\c1cc[n+](Cc3ccccc3)cc1)C2=O	153	44.8	6870	2.53	8.68	–	1.28
COc1ccc2c(c1OC)CO/C(=C\c1cc[n+](Cc3ccc(Cl)cc3)cc1)C2=O	5.5	646	3560	–	–	–	–
COc1cccc(C[n+]2ccc(/C=C3\OCc4c(ccc(OC)c4OC)C3=O)cc2)c1	7	441	3060	–	–	–	–
